Measured values: PMC10081574, “Evaluation of Antiviral Activity of Gemcitabine Derivatives against Influenza Virus and Severe Acute Respiratory Syndrome Coronavirus 2” (ACS Infectious Diseases, 2023)
Read-outs that look alike come from different tables or passages of the source.

Assays:
[1] = tested on: B/Lee/40; assay: CPE reduction antiviral assay in Lee-infected MDCK cells (MTT); format: cell-based, influenza B virus; conditions: for EC50 / EC90: Influenza B virus, 72 h; for EC50: viability of infected cells to 50%; for SI50 Lee: ratio of CC50 to EC50; for EC90: read-out: EC90 Lee; for SI90 Lee: ratio of CC10 to EC90
[2] = tested on: MDCK cells; conditions: for CC10: dog, 3 days
[3] = tested on: A/Puerto Rico/8/34 (H1N1); conditions: for SI50 PR8: ratio of CC50 to EC50; for SI90 PR8: ratio of CC10 to EC90
[4] = tested on: A/Hong Kong/8/68 (H3N2); conditions: for SI50 HK: ratio of CC50 to EC50; for SI90 HK: ratio of CC10 to EC90
[5] = in vitro; conditions: dog
[6] = tested on: A/Puerto Rico/8/34 (H1N1); assay: microbe, parasite or virus in culture; conditions: Influenza A virus, 72 h; for EC50 / EC90: H1N1 / PR8, MDCK; for EC50: read-out: EC50 PR8; for EC90: read-out: EC90 PR8
[7] = tested on: A/Hong Kong/8/68 (H3N2); assay: microbe, parasite or virus in culture; conditions: Influenza A virus, H3N2, MDCK, 72 h; for EC50: read-out: EC50 HK; for EC90: read-out: EC90 HK
[8] = tested on: influenza A and B viruses; assay: CPE reduction antiviral assay, values summarised over influenza strains PR8, HK and Lee; format: cell-based, influenza virus
[9] = tested on: SARS-CoV-2; assay: Anti-SARS-CoV-2 immunofluorescence assay (anti-S) in Calu-3 cells; format: cell-based; conditions: ratio of CC50 to EC50
[10] = Cytotoxicity to mock-infected MDCK cells (MTT); conditions: dog, mock-infected MDCK cells
[11] = tested on: MDCK cells; assay: Cytotoxicity to mock-infected MDCK cells (MTT); conditions: mock-infected MDCK cells, day 3, MTT; concentration inhibiting cell viability by 10%
[12] = tested on: PR8 virus; format: cell-based, influenza A virus
[13] = tested on: PR8 virus; format: cell-based, influenza A virus; remark: listed apart in the source
[14] = biological target: polymerase activity of influenza A virus PR8 (Influenza A virus, UniProt P03431); format: cell-based; conditions: 11, 33 and 100 μM, 72 h time course
[15] = physchem; conditions: aqueous buffer
[16] = MDCK, MDCK, MOI 0.001, day 3, read-out: EC50 Lee
[17] = over PR8, HK and Lee, CC10/EC90
[18] = MDCK, MOI 0.001, day 3, viability of infected cells to 90%
[19] = MDCK, read-out: EC50 Lee, MDCK, MOI 0.001, day 3
[20] = Influenza A virus, PR8, MDCK, span over PR8, HK and Lee, MDCK, read-out: EC90 against influenza viruses

polymerase activity of influenza A virus PR8, sequence (P03431 whole entry, looked up): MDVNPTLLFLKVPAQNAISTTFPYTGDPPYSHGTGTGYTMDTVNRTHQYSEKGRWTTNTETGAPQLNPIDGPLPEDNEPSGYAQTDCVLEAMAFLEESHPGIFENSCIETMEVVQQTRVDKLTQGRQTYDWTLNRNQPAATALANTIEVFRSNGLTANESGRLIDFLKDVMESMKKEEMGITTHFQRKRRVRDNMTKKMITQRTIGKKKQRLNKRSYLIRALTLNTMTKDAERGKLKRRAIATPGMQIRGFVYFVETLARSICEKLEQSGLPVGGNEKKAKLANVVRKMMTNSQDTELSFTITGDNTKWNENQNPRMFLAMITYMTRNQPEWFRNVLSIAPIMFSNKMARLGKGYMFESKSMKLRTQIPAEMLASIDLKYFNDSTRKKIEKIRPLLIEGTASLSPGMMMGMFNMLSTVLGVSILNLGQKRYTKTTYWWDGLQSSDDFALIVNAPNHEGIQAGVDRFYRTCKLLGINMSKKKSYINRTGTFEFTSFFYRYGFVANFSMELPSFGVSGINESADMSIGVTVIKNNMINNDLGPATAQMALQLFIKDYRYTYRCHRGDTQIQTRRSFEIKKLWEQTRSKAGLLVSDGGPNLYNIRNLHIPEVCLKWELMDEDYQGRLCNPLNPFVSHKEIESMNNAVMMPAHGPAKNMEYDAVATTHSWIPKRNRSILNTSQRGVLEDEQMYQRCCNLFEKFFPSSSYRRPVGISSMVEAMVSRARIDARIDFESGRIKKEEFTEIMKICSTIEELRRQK

## COc1ccc(C(=O)Nc2ccn([C@@H]3O[C@H](CO)[C@@H](O)C3(F)F)c(=O)n2)cn1 [Compound 3e]
[1]; [16]
  EC50: 18.5 ± 2 µM
[1]
  SI50 Lee: > 16.2
[2]
  CC10: 129.7 ± 74.0 µM
[3]
  SI50 PR8: > 12.8
[4]
  SI50 HK: > 12.5
[5]
  CC50 at 3 days: > 300 µM
[6]
  EC50: 23.5 ± 4.1 µM
[7]
  EC50: 24 ± 2 µM

## O=C(Nc1ccn([C@@H]2O[C@H](CO)[C@@H](O)C2(F)F)c(=O)n1)c1ccc(Cl)nc1 [Compound 3d]
[1]; [16]
  EC50: 10.6 ± 1.7 µM
[1]
  SI50 Lee: > 28.4
[2]
  CC10: 91.1 ± 53.8 µM
[3]
  SI50 PR8: > 23.8
[4]
  SI50 HK: > 31.5
[5]
  CC50 at 3 days: > 300 µM
[6]
  EC50: 12.6 ± 2.5 µM
[7]
  EC50: 9.5 ± 0.3 µM

## Cc1cccnc1C(=O)Nc1ccn([C@@H]2O[C@H](CO)[C@@H](O)C2(F)F)c(=O)n1 [Compound 2c]
[1]; [16]
  EC50: 26.2 ± 2 µM
[1]
  SI50 Lee: > 11.5
[8]; [17]
  SI90 against influenza viruses: > 1.4
[2]
  CC10: >300.0 µM
[3]
  SI90 PR8: > 2.6
  SI50 PR8: > 9.2
[4]
  SI90 HK: > 7.3
  SI50 HK: > 11.2
[5]
  CC50 at 3 days: > 300 µM
[6]
  EC50: 32.8 ± 5.8 µM
  EC90: 114 ± 24.7 µM
[7]
  EC50: 26.8 µM
  EC90: 41.2 ± 0.5 µM

## NC(=O)c1nc(F)c[nH]c1=O [Favipiravir, reference compound]
[1]; [18]
  EC90: 16.3 ± 4.2 µM
[1]; [16]
  EC50: 1.5 ± 0.2 µM
[1]
  SI90 Lee: > 18.4
  SI50 Lee: > 200.0
[2]
  CC10: >300.0 µM
[3]
  SI90 PR8: > 35.3
  SI50 PR8: > 166.7
[4]
  SI90 HK: > 43.5
  SI50 HK: > 100.0
[5]
  CC50 at 3 days: > 300 µM
[6]
  EC50: 1.8 ± 0.1 µM
  EC90: 8.5 ± 0.2 µM
[7]
  EC50: 3 ± 0.4 µM
  EC90: 6.9 ± 1.8 µM

## CCC(CC)COC(=O)[C@H](C)N[P@](=O)(OC[C@H]1O[C@@](C#N)(c2ccc3c(N)ncnn23)[C@H](O)[C@@H]1O)Oc1ccccc1 [Remdesivir, reference compound]
[9]
  SI SARS-CoV-2: > 129.0

## NC12CC3CC(CC(C3)C1)C2 [Amantadine, reference compound]
[4]
  SI50 HK: > 19.5
[7]
  EC50: 15.4 ± 5.1 µM
[10]
  CC50 at 3 days: > 300 µM
[11]
  CC10: 91.0 ± 34.5 µM

## COc1ccc(C(=O)Nc2ccn([C@@H]3O[C@H](CO)[C@@H](O)C3(F)F)c(=O)n2)nc1 [Compound 2g]
[1]; [18]
  EC90: 98.1 ± 16.7 µM
[1]; [16]
  EC50: 13.3 ± 2.7 µM
[1]
  SI90 Lee: > 3.1
  SI50 Lee: > 22.6
[8]; [17]
  SI90 against influenza viruses: > 1.4
[2]
  CC10: >300.0 µM
[3]
  SI90 PR8: > 4.4
  SI50 PR8: > 10.5
[4]
  SI90 HK: > 9.3
  SI50 HK: > 16.1
[5]
  CC50 at 3 days: > 300 µM
[6]
  EC50: 28.5 ± 4.2 µM
  EC90: 68.8 ± 22.7 µM
[7]
  EC50: 18.6 ± 0.1 µM
  EC90: 32.3 ± 0.7 µM

## O=C(Nc1ccn([C@@H]2O[C@H](CO)[C@@H](O)C2(F)F)c(=O)n1)c1cccc(-c2ccccc2)n1 [Compound 2e]
[1]; [19]
  EC50: 3.39 ± 0.1 µM
[1]; MDCK
  EC90: 34.3 ± 4.3 µM
[1]
  SI90 Lee: > 8.7
  SI50 Lee: > 88.5
[8]; [20]
  EC90: 10.7 to 34.3 µM
[8]; [17]
  SI90 against influenza viruses: > 8.7
[8]; span over PR8, HK and Lee, MDCK, read-out: EC90 against influenza viruses
  EC90: 14.5 to 34.3 µM
[12]
  reduction of viral NP protein expression: in a dose-dependent manner
[13]
  reduction of viral RNA copies: in a dose-dependent manner
[14]
  inhibition of viral polymerase activity (EGFP expression): Inhibition of influenza A viral polymerase activity
[3]
  SI90 PR8: > 18.1
  SI50 PR8: > 73.3
[4]
  SI90 HK: > 20.7
[5]
  CC50 at 3 days: > 300 µM
  viability at 3 days, 300 µM: > 90%
[15]
  solubility: < 500 µg/mL
[6]
  EC50: 4.1 ± 0.4 µM
  EC90: 16.6 ± 8.6 µM
[7]
  EC50: 5 ± 0.1 µM
  EC90: 14.5 ± 0.4 µM

## Cc1ccc(C(=O)Nc2ccn([C@@H]3O[C@H](CO)[C@@H](O)C3(F)F)c(=O)n2)nc1 [Compound 2b]
[1]; [18]
  EC90: 43.8 ± 24.4 µM
[1]; [16]
  EC50: 8.1 ± 0.7 µM
[1]
  SI90 Lee: 4.8
  SI50 Lee: > 37.3
[8]; [17]
  SI90 against influenza viruses: > 1.4
[2]
  CC10: 209.2 ± 61.7 µM
[3]
  SI90 PR8: 8.3
  SI50 PR8: > 22.4
[4]
  SI90 HK: 1.8
  SI50 HK: > 5.8
[5]
  CC50 at 3 days: > 300 µM
[6]
  EC50: 13.4 ± 0.9 µM
  EC90: 25.3 ± 1.3 µM
[7]
  EC50: 51.8 ± 42.6 µM
  EC90: 117 ± 18.5 µM

## O=C(Nc1ccn([C@@H]2O[C@H](CO)[C@@H](O)C2(F)F)c(=O)n1)c1ccc([N+](=O)[O-])cn1 [Compound 2i]
[1]; [19]
  EC50: 0.7 µM
[1]; MDCK
  EC90: 1.6 ± 0.1 µM
[1]
  SI90 Lee: 11.0
  SI50 Lee: > 464.8
[8]; [17]
  SI90 against influenza viruses: > 1.4
[2]
  CC10: 17.9 ± 6.7 µM
[3]
  SI90 PR8: 8.1
[4]
  SI90 HK: 15.7
  SI50 HK: > 518.5
[5]
  CC50 at 3 days: > 300 µM
[6]
  EC50: 1.1 µM
  EC90: 2.2 ± 0.2 µM
[7]
  EC50: 0.6 ± 0.1 µM
  EC90: 1.1 µM

## O=C(Nc1ccn([C@@H]2O[C@H](CO)[C@@H](O)C2(F)F)c(=O)n1)c1cccnc1 [Compound 3a]
[1]; [16]
  EC50: 3.1 ± 0.5 µM
[1]; MDCK, 90% viability criteria
  activity against influenza B virus by EC90/SI90 criteria: not against influenza B virus
[1]
  SI50 Lee: > 95.7
[8]; [20]
  EC90: 1.4 to 16.9 µM
[8]; Influenza A virus, PR8, PR8 and HK only, read-out: EC90 against influenza A viruses
  EC90: 10.6 to 16.9 µM
[8]; Influenza A virus, span over PR8, HK and Lee, MDCK, read-out: EC50 against influenza viruses
  EC50: 3.1 to 6.2 µM
[8]; PR8 and HK only, CC10/EC90
  SI90 against influenza A viruses: 2.7–4.2
[8]; dose-response, MDCK
  concentration of maximal antiviral efficacy: ~33 µM
[8]; over PR8, HK and Lee, CC50/EC50
  SI50 against influenza viruses: > 48.4
[2]
  reduction of cytotoxicity relative to gemcitabine: ninefold
[3]
  SI90 PR8: 2.7
  SI50 PR8: > 52.1
[4]
  SI90 HK: 4.2
  SI50 HK: > 48.4
[5]
  CC50 at 3 days: > 300 µM
[6]
  EC50: 5.8 ± 0.9 µM
  EC90: 16.9 ± 7.2 µM
[6]; H1N1|PR8, MDCK, read-out: viability of PR8-infected cells in library screening
  viability at 10 µM: > 50%
[7]
  EC50: 6.2 ± 1.1 µM
  EC90: 10.6 ± 0.8 µM
[7]; read-out: viability of HK-infected cells in library screening
  viability at 10 µM: > 50%

## O=C(Nc1ccn([C@@H]2O[C@H](CO)[C@@H](O)C2(F)F)c(=O)n1)c1ccc(-c2ccccc2)cn1 [Compound 2d]
[1]; [19]
  EC50: 39.1 ± 3.2 µM
[1]
  SI50 Lee: > 7.7
[8]; [17]
  SI90 against influenza viruses: > 1.4
[2]
  CC10: >300.0 µM
[3]
  SI50 PR8: > 6.5
[4]
  SI90 HK: > 1.4
  SI50 HK: > 6.0
[5]
  CC50 at 3 days: > 300 µM
[6]
  EC50: 46.1 ± 3 µM
  EC90: 119 ± 66.2 µM
[7]
  EC50: 50.2 ± 3.4 µM
  EC90: 219 ± 36.3 µM

## O=C(Nc1ccn([C@@H]2O[C@H](CO)[C@@H](O)C2(F)F)c(=O)n1)c1ccc(C(F)(F)F)nc1 [Compound 3f]
[1]; [16]
  EC50: 4.1 ± 0.1 µM
[1]
  SI50 Lee: > 73.9
[2]
  CC10: 7.9 ± 8.4 µM
[3]
  SI50 PR8: > 73.6
[4]
  SI50 HK: > 84.7
[5]
  CC50 at 3 days: > 300 µM
[6]
  EC50: 4.1 ± 0.3 µM
[7]
  EC50: 3.5 ± 0.6 µM

## NC(=O)c1ncn([C@@H]2O[C@H](CO)[C@@H](O)[C@H]2O)n1 [Ribavirin, reference compound]
[1]; [19]
  EC50: 11.1 ± 0.1 µM
[1]; MDCK
  EC90: 141 ± 18.3 µM
[6]
  EC50: 20.1 µM
  EC90: 79.4 µM
[7]
  EC50: 20.4 µM
  EC90: 59.5 µM
[10]
  CC50 at 3 days: > 300 µM
